Test system: Recombinant influenza A virus hemagglutinin H3 protein (HA)
Conditions: SPR sensorgrams Fig. 3A-D

Row | Molecule | Rmax, binding to HA [RU]
1 | CVN2L0-V2: CVN2L0 variant with one C58E–C73R substitution, three disulfide bonds | 723
2 | CVN2L0-V4: CVN2L0 variant with Cys–Cys mutagenesis to Trp–Met and Glu–Arg, two disulfide bonds (protein, left off: His6, N-terminal, state not stated) LGKFSQTCYNSAIQGSVLTSTCERTNGGYNTSSIDLNSVIENVDGSLKWQPSNFIETWRNTQLAGSSELAAEMKTRAQQFVSTKINLDDHIANIDGTLKYELGKFSQTCYNSAIQGSVLTSTCERTNGGYNTSSIDLNSVIENVDGSLKWQPSNFIETERNTQLAGSSELAAERKTRAQQFVSTKINLDDHIANIDGTLKYE | 34

From paper PMC9050506 (RSC Advances, 2020)
